Among the data in PubChem BioAssay (NCI) are TGI values, retold here.

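Dose response: 5 concentrations. Exposure: 48 h. Format: 96-well plates. Endpoint: linear interpolation; highest concentration if not reached. The concentration for full growth arrest is given as TGI.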

What all share (assay): DTP human tumour cell line panel, 48 h
In test [1] the test system is NCI-H226 lung.
The test system of test [2] is NCI/ADR-RES ovarian.
Test [3] has as its system A549 NSCLC.
For test [4], the system named is MOLT-4 leukemia.
In test [5] the test system is KM12 colon.
For test [6], the system named is LOX IMVI melanoma.
Test [7] has as its system MCF7 breast.
The test system of test [8] is SNB-19 CNS.
Test [9] concerns SK-MEL-2 melanoma.
In test [10] the test system is HOP-92 NSCLC.
The subject of test [11] is MDA-MB-435.
Test [12] concerns NCI-H23 lung.

As usually defined, the TGI is the concentration at which net growth stops. Read a high TGI as lower sensitivity of the cells. With `CC(C)C[C@H](NC(=O)[C@@H](Cc1cccc2ccccc12)NC(=O)N1CCOCC1)B(O)O`, the TGI in test [1] is 3.2 µM; in test [2], > 100 µM; in [3], 68 µM; in [4] it was > 100 µM; in test [5], 20 µM; in test [6], 5.98 µM. The TGI is > 52.7 µM in test [7]; > 100 µM in [8]; 13.1 µM in test [9]; 8.55 µM in [10]; 3.79 µM in test [11]; 8.94 µM in test [12].

In the case of `COc1ccc2c(c1)CC[C@@H]1C2CC[C@]2(C)OC(=O)CCC12` (some centres undefined), the TGI in [1] is 36.7 µM; in [2], 33.4 µM; in test [3] it was > 100 µM; in test [4] it was > 100 µM; in [5], > 100 µM; in test [6], 19.4 µM. Further, the TGI was 35.2 µM in test [7]; 38.2 µM in test [8]; 66.5 µM in [9]; 40.6 µM in [10]; > 100 µM in test [11]; 38.4 µM in test [12].
